In article PMC11505594, “Design, Synthesis, and Anti-Melanogenic Activity of 2-Mercaptomethylbenzo[d]imidazole Derivatives Serving as Tyrosinase Inhibitors: An In Silico, In Vitro, and In Vivo Exploration” (Antioxidants, 2024):
“Also recorded” adds a separate entry of the source. Where two headings read alike, the source gives them in different places.

Experiments:
mushroom TYR [1] = target: T1, mushroom TYR (Agaricus bisporus, UniProt C7FF04); test: Mushroom TYR activity assay with and without CuSO4; type: biochemical; details: 20 μM derivative, L-tyrosine
T1 sequence (C7FF04 2-392): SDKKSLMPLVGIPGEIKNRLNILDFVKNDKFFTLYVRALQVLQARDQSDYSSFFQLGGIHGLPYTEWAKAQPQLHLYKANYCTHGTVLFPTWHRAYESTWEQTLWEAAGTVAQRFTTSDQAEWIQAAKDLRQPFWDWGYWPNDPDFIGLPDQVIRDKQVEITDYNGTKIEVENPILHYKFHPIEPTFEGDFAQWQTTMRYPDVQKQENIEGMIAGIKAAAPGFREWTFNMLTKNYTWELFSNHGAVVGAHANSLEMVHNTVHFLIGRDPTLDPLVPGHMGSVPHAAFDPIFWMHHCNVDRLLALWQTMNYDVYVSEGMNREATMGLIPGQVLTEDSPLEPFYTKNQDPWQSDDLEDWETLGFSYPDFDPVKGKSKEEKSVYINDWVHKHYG
Experimental: To determine whether copper(II) ions influence the TYR-inhibitory activity of 2-MMBI derivatives, the effects of these derivatives on mushroom TYR activity were measured with and without CuSO4. Briefly, mushroom TYR aqueous solution (20 μL, 1 unit/μL) was mixed with 2-MMBI derivatives (1, 3, and 8–10) (10 μL, final concentration: 20 μM) and with the substrate solution (170 μL), comprising 17.2 mM phosphate buffer (pH 6.5) and 345 μM L-tyrosine, in the presence or absence of CuSO4 (50 μL, final concentration: 50 μM) in each well of a 96-well plate. […] Each assay was carried out independently in triplicate.

mushroom TYR [2] = target: T1, mushroom TYR; test: Kinetic studies on mushroom TYR (Lineweaver–Burk and Dixon plots); type: biochemical; details: L-dopa as substrate
Experimental: Kinetic experiments were performed to obtain Lineweaver–Burk plots for the analysis of mushroom TYR kinetics. Mushroom TYR solution (20 μL, 150 units/mL) was added to each well of a 96-well microplate containing 2-MMBI derivatives (10 μL; 0, 7.5, 15, and 30 μM for 1; 0, 5, 10, and 20 μM for 3 and 8; and 0, 12.5, 25, and 50 μM for 9) and a substrate solution (170 μL) composed of sodium phosphate buffer (17.2 mM; pH 6.5) and L-dopa (various concentrations: 0.5, 1, 2, 4, 8, and 16 mM). […] Lineweaver–Burk plots for each 2-MMBI derivative were obtained by plotting the value of 1/[substrate] against the value of (min/ΔOD475). Lineweaver–Burk plots were transformed into corresponding Dixon plots by plotting the value of (min/ΔOD475) against the value of the 2-MMBI derivative concentration.

B16F10 cells = test: Melanin content measurement assay in B16F10 cells; type: cell-based, murine; details: α-MSH 1 μM plus IBMX 200 μM, 72 h; for effect on B16F10 cellular melanin production at three concentrations: 2, 5, and 10 μM
Experimental: A 6-well plate containing 5 × 10^3 B16F10 cells per well was incubated at 37 °C and 5% CO2 for 1 day. […] After 1 h, 1 μM α-MSH and 200 μM IBMX were added to each well, and the plate was subsequently incubated at 37 °C and 5% CO2 for 72 h. The cells were exposed to […] 1N-NaOH solution and cultured at 60 °C for 1 h after washing with PBS. The lysates were transferred to each well of a 96-well plate, and the optical density at 405 nm was recorded using a VersaMax™ reader. […] Each assay was independently performed three times.

zebrafish larvae = test: Melanogenesis (depigmentation) assay using zebrafish embryos; type: in vivo; details: for depigmentation of zebrafish larvae at 0.1 mM / depigmentation of zebrafish larvae at 0.03 mM: compared with kojic acid 20 mM; for pigmentation area of zebrafish larvae (CS analyzer, dorsal and lateral views): derivatives 0.03 and 0.1 mM, kojic acid 20 mM
Experimental: To assess depigmentation in vivo, wild-type zebrafish (Danio rerio) embryos were acquired free of charge from the Zebrafish Center for Disease Modeling (ZCDM) located at Chungnam National University in Daejeon, Republic of Korea. The zebrafish were raised in tanks maintained at 28 °C in the ZCDM. The tanks were oxygenated, and the tank lights were turned off for 10 h and on for 14 h. The zebrafish embryos used for in vivo depigmentation experiments were obtained through natural mating. The E3 solution for zebrafish embryos was prepared by dissolving 19.9 mg magnesium sulfate, 6.4 mg potassium chloride, 18.3 mg calcium chloride, and 146.1 mg sodium chloride in 500 mL distilled water. E3-MB (methylene blue) solution was prepared by adding MB to the E3 solution to create a 0.001% MB solution. The acquired zebrafish embryos were transferred to a culture dish containing the E3-MB solution. The culture dish was incubated at 28 °C until zebrafish embryos were used. Since zebrafish embryos are sensitive and can be easily killed by the chorion removal process 20 h post-fertilization (20 hpf), the chorion was removed at 24 hpf through treatment with pronase (Sigma-Aldrich, St. Louis, MO, USA). Five dechorionated zebrafish embryos were transferred to each well of 48-well microplates containing 250 μL E3 solution. […] Zebrafish larvae were anesthetized with tricaine at 76 hpf and placed on a 1% methylcellulose block to determine the degree of zebrafish larva depigmentation. Dorsal and lateral images of the zebrafish larvae were acquired using an SMZ745T microscope (Nikon, Tokyo, Japan). The pigmented areas of the dorsal and lateral images were obtained using CS analyzer 3.0 image analysis software (ATTO, Tokyo, Japan). Each assay (n = 7) was independently performed two times.

[3] = Reactive oxygen species removal activity assay (SIN-1, DCFH); details: test samples 40 μM; SIN-1 10 μM
Experimental: To assess reactive oxygen species (ROS) removal activity, a DCFH solution was prepared by mixing 50 μL DCFH-DA (1.25 mM), 50 μL esterase (0.6 unit/μL), and 4.9 mL phosphate buffer (50 mM) and maintained in the dark for 30 min. The SIN-1 solution (10 μL) was added to each well of a 96-black well that contained the test sample (10 μL; 2-MMBI derivatives 1–10 and Trolox [positive material]) and phosphate buffer (180 μL). 2-MMBI derivatives, Trolox, and SIN-1 were exposed at final concentrations of 40, 40, and 10 μM, respectively. The prepared DCFH solution (50 μL) was added to each well after 10 min. The fluorescence intensity of 2′,7′-dichlorofluorescein in the wells was measured at 535 nm using a microplate reader (Berthold Advances GmbH & Co., Bad Wildbad, Germany) with an excitation wavelength of 485 nm. Each experiment was conducted independently four times.

B16F10 cellular TYR = target: T2, B16F10 cellular TYR (Mus musculus, UniProt P11344); test: TYR activity assay in B16F10 cells; type: cell-based, murine; details: 2, 5, and 10 μM; α-MSH 1 μM plus IBMX 200 μM; 72 h
T2 construct: The in situ cellular TYR activities of the 2-MMBI derivatives were investigated using B16F10 cells; endogenous in cells; host or cells: B16F10 murine melanoma cells stimulated with alpha-MSH and IBMX
T2 sequence (P11344 19-533): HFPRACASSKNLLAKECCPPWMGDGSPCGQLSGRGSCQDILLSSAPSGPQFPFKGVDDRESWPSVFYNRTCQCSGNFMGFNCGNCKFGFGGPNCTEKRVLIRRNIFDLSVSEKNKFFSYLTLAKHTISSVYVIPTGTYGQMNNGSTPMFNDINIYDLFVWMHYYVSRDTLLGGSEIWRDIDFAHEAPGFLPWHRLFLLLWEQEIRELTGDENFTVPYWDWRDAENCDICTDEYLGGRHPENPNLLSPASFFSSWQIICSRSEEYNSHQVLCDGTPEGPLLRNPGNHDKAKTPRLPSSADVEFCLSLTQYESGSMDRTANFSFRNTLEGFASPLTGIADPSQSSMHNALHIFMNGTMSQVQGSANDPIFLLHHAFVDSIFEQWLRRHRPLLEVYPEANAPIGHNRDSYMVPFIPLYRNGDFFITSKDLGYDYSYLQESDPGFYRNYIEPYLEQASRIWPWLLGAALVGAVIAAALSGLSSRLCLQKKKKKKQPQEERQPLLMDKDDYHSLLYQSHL
Experimental: A 6-well plate containing 5 × 10^3 B16F10 cells per well was incubated (37 °C and 5% CO2) for 1 day. […] Stimulators (1 μM α-MSH and 200 μM IBMX) were added after 1 h, and the plate was incubated (37 °C and 5% CO2) for 72 h. After washing with PBS, 100 μL lysis buffer consisting of 1% Triton X-100, 1 mM phenylmethylsulfonyl fluoride, and 50 mM sodium phosphate buffer (pH 6.5) in a volume ratio of 1:1:18 was added to each well. Following an incubation period of 30 min at −80 °C, the cell lysates were centrifuged at 12,000× g for 10 min at 4 °C to obtain the supernatants. […] Each assay was independently performed three times.

B16F10 cell TYR = target: T3, B16F10 cell TYR (Mus musculus, UniProt P11344); test: In situ B16F10 cellular TYR activity assay (L-dopa staining); type: cell-based, murine; details: α-MSH plus IBMX 72 h; for in situ B16F10 cell TYR activity (cell staining), concentration series: 2, 5, and 10 μM
T3 construct: The in situ cellular TYR activities of the 2-MMBI derivatives were investigated using B16F10 cells; endogenous in cells; host or cells: B16F10 murine melanoma cells stimulated with alpha-MSH and IBMX
T3 sequence (P11344 19-533): T2 sequence (P11344 19-533)
Experimental: B16F10 cells (2 × 10^3/well) were inoculated in each well of a 24-well microplate and cultured for 1 day in an incubator (37 °C and 5% CO2). […] Subsequently, stimulators (α-MSH [1 μM] and IBMX [200 μM]) were added to each well. […] Stained photographs were captured using a camera attached to a microscope (Motic, Hong Kong, China). Each assay was independently performed two times.

[4] = CuSO4 50 μM added externally, read-out: inhibition of mushroom TYR activity with CuSO4
[5] = no CuSO4 added externally, read-out: inhibition of mushroom TYR activity without CuSO4
[6] = 0.03 and 0.1 mM, 48 h exposure from 28 hpf

SCc1nc2ccccc2[nH]1 [Derivative 1, (1H-Benzo[d]imidazol-2-yl)methanethiol]
inhibition at 20 µM (mushroom TYR [1]; [4]): 76%
inhibition at 20 µM (mushroom TYR [1]; [5]): 86 to 89%
inhibition mechanism (mushroom TYR [2]): competitive TYR inhibitors
effect on B16F10 cellular melanin production at 10 μM (B16F10 cells): relatively low melanin inhibitory effect
depigmentation of zebrafish larvae at 0.1 mM (zebrafish larvae; 0.1 mM, 48 h): much more potent inhibition of melanin production in zebrafish larvae than kojic acid
pigmentation area of zebrafish larvae (CS analyzer, dorsal and lateral views) (zebrafish larvae): reduced the pigmentation area more strongly than kojic acid in a concentration-dependent manner

SCc1nc2cc(Cl)ccc2[nH]1 [Derivative 2, (5-Chloro-1H-benzo[d]imidazol-2-yl)methanethiol]
depigmentation of zebrafish larvae at 0.03 mM (zebrafish larvae; 48 h): much stronger depigmentation efficacy than kojic acid
zebrafish larvae death at 0.1 mM (zebrafish larvae; 0.1 mM, 48 h exposure from 28 hpf): died
ROS scavenging activity [3]: stronger ROS scavenging efficacy than the other derivatives

COc1ccc2[nH]c(CS)nc2c1 [Derivative 3, (5-Methoxy-1H-benzo[d]imidazol-2-yl)methanethiol]
inhibition at 20 µM (mushroom TYR [1]; [4]): 34%
inhibition at 20 µM (mushroom TYR [1]; [5]): 86 to 89%
inhibition mechanism (mushroom TYR [2]): competitive TYR inhibitors
effect on B16F10 cellular melanin production at 10 μM (B16F10 cells): inhibited melanin production more strongly than kojic acid
effect on B16F10 cellular melanin production at three concentrations (B16F10 cells): significantly decreased the melanin levels increased by the stimulators in a concentration-dependent manner
effect on B16F10 cellular TYR activity (B16F10 cellular TYR): significantly reduced stimulator-enhanced cellular TYR activity in a dose-dependent manner
depigmentation of zebrafish larvae at 0.03 mM (zebrafish larvae; 48 h): much stronger depigmentation efficacy than kojic acid
depigmentation of zebrafish larvae at 0.1 mM (zebrafish larvae; 0.1 mM, 48 h): much more potent inhibition of melanin production in zebrafish larvae than kojic acid
pigmentation area of zebrafish larvae (CS analyzer, dorsal and lateral views) (zebrafish larvae): reduced the pigmentation area more strongly than kojic acid in a concentration-dependent manner

Fc1ccc2[nH]c(CS)nc2c1 [Derivative 4, (5-Fluoro-1H-benzo[d]imidazol-2-yl)methanethiol]
zebrafish larvae death (zebrafish larvae; [6]): all zebrafish larvae died at the tested concentrations

N#Cc1ccc2[nH]c(CS)nc2c1 [Derivative 5, 2-(Mercaptomethyl)-1H-benzo[d]imidazole-5-carbonitrile]
depigmentation of zebrafish larvae at 0.03 and 0.1 mM (zebrafish larvae; 0.03 and 0.1 mM, 48 h): did not exhibit significant depigmentation

FC(F)(F)c1ccc2[nH]c(CS)nc2c1 [Derivative 7, (5-(Trifluoromethyl)-1H-benzo[d]imidazol-2-yl)methanethiol]
effect on B16F10 cellular melanin production at 10 μM (B16F10 cells): inhibited melanin production more strongly than kojic acid; also recorded: strongest melanin inhibitory effect
effect on B16F10 cellular melanin production at three concentrations (B16F10 cells): significantly decreased the melanin levels increased by the stimulators in a concentration-dependent manner; also recorded: potently reduced the stimulator-induced increase in melanin content to the levels observed in the control group
effect on B16F10 cellular TYR activity (B16F10 cellular TYR): significantly reduced stimulator-enhanced cellular TYR activity in a dose-dependent manner
in situ B16F10 cell TYR activity (cell staining) at 10 μM (B16F10 cell TYR): inhibited in situ B16F10 cell TYR activity much more potently than kojic acid
in situ B16F10 cell TYR activity (cell staining), concentration series (B16F10 cell TYR): reduced the increase in cell staining induced by α-MSH and IBMX in a concentration-dependent manner
zebrafish larvae death (zebrafish larvae; [6]): all zebrafish larvae died at the tested concentrations
ROS scavenging activity [3]: stronger ROS scavenging efficacy than the other derivatives

Cc1cccc2[nH]c(CS)nc12 [Derivative 9, (4-Methyl-1H-benzo[d]imidazol-2-yl)methanethiol]
inhibition at 20 µM (mushroom TYR [1]; [4]): 54%
inhibition at 20 µM (mushroom TYR [1]; [5]): 86 to 89%
inhibition mechanism (mushroom TYR [2]): mixed TYR inhibitors

Cc1cc2nc(CS)[nH]c2cc1C [Derivative 10, (5,6-Dimethyl-1H-benzo[d]imidazol-2-yl)methanethiol]
inhibition at 20 µM (mushroom TYR [1]; [4]): 1%
inhibition at 20 µM (mushroom TYR [1]; [5]): 60%
effect on B16F10 cellular melanin production at 10 μM (B16F10 cells): inhibited melanin production more strongly than kojic acid
effect on B16F10 cellular melanin production at three concentrations (B16F10 cells): significantly decreased the melanin levels increased by the stimulators in a concentration-dependent manner
effect on B16F10 cellular TYR activity (B16F10 cellular TYR): significantly reduced stimulator-enhanced cellular TYR activity in a dose-dependent manner
in situ B16F10 cell TYR activity (cell staining) at 10 μM (B16F10 cell TYR): inhibited in situ B16F10 cell TYR activity much more potently than kojic acid
in situ B16F10 cell TYR activity (cell staining), concentration series (B16F10 cell TYR): reduced the increase in cell staining induced by α-MSH and IBMX in a concentration-dependent manner
